Reference: patent publication US20250059131A1, “FLUORINATED CATIONIC LIPIDS FOR USE IN LIPID NANOPARTICLES” (Acuitas Therapeutics, Inc., priority 2021, published 2025)
Marks after values point to notes of the source that are not given here.

Experiments:
[1] = Determination of pKa of formulated lipids (TNS fluorescence assay in lipid nanoparticles); type: physicochemical; settings: cationic lipid formulated in LNP (cationic lipid/DSPC/cholesterol/PEG-lipid 47.5/10/40.7/1.8 mol %), pH of half-maximal fluorescence
Procedure: As described elsewhere, the pKa of formulated cationic lipids is correlated with the effectiveness of LNPs for delivery of nucleic acids (see Jayaraman et al, Angewandte Chemie, International Edition (2012), 51(34), 8529-8533; Semple et al, Nature Biotechnology 28, 172-176 (2010)). The preferred range of pKa is ˜5 to ˜7. The pKa of each cationic lipid was determined in lipid nanoparticles using an assay based on fluorescence of 2-(p-toluidino)-6-napthalene sulfonic acid (TNS). Lipid nanoparticles comprising cationic lipid/DSPC/cholesterol/PEG-lipid (47.5/10/40.7/1.8 mol %) in PBS at a concentration of 0.4 mM total lipid were prepared using the in-line process as described in Example 1. TNS was prepared as a […] stock solution in distilled water. Vesicles were diluted to 24 μM lipid in 2 mL of buffered solutions containing, 10 mM HEPES, 10 mM MES, 10 mM ammonium acetate, 130 mM NaCl, where the pH ranged from 2.5 to 11. An aliquot of the TNS solution was added to give a final concentration of 1 μM and following vortex mixing fluorescence intensity was measured at room temperature in a SLM Aminco Series 2 Luminescence Spectrophotometer using excitation and emission wavelengths of 321 nm and 445 nm. A sigmoidal best fit analysis was applied to the fluorescence data and the pKa was measured as the pH giving rise to half-maximal fluorescence intensity.

[2] = tested on: luciferase expression in the liver; assay: Luciferase mRNA in vivo evaluation using lipid nanoparticle compositions; design: species or system mice; settings: tail vein injection, 4 hours after administration, LNP formulation; for Liver Luc @ 0.5 mg/kg (ng luc/g): 0.5 mg mRNA/kg
Procedure: Lipid nanoparticles were prepared and tested according to the general procedures described in PCT Pub. Nos. WO 2015/199952 and WO 2017/004143, the full disclosures of which are incorporated herein by reference. Briefly, cationic lipid, DSPC, cholesterol and PEG-lipid were solubilized in ethanol at a molar ratio of about 50:10:38.5:1.5 or about 47.5:10:40.7:1.8. Lipid nanoparticles (LNP) were prepared at a total lipid to mRNA weight ratio of approximately 10:1 to 40:1. The mRNA is diluted to 0.2 mg/mL in 10 to 50 mM citrate or acetate buffer, pH 4. Syringe pumps were used to mix the ethanolic lipid solution with the mRNA aqueous solution at a ratio of about 1:5 to 1:3 (vol/vol) with total flow rates above 15 mL/min. The ethanol was then removed and the external buffer replaced with PBS by dialysis. Finally, the lipid nanoparticles were filtered through a 0.2 µm pore sterile filter. Lipid nanoparticle particle size was approximately 55-95 nm diameter, and in some instances approximately 70-90 nm diameter as determined by quasi-elastic light scattering using a Malvern Zetasizer Nano ZS (Malvern, UK).
Studies were performed in 6-8 week old female C57BL/6 mice (Charles River) or 8-10 week old CD-1 (Harlan) mice (Charles River) according to guidelines established by an institutional animal care committee (ACC) and the Canadian Council on Animal Care (CCAC). Varying doses of mRNA-lipid nanoparticle were systemically administered by tail vein injection and animals euthanized at a specific time point (e.g., 4 hours) post-administration. Liver and spleen were collected in pre-weighed tubes, weights determined, immediately snap frozen in liquid nitrogen and stored at −80° C. until processing for analysis.
For liver, approximately 50 mg was dissected for analyses in a 2 mL FastPrep tubes (MP Biomedicals, Solon OH). […] ceramic sphere (MP Biomedicals) is added to each tube and 500 μL of Glo Lysis Buffer—GLB (Promega, Madison WI) equilibrated to room temperature is added to liver tissue. Liver tissues were homogenized with the FastPrep24 instrument (MP Biomedicals) at 2×6.0 m/s for 15 seconds. Homogenate was incubated at room temperature for 5 minutes prior to a 1:4 dilution in GLB and assessed using SteadyGlo Luciferase assay system (Promega). Specifically, 50 μL of diluted tissue homogenate was reacted with 50 μL of SteadyGlo substrate, shaken for 10 seconds followed by 5 minute incubation and then quantitated using a CentroXS^3 LB 960 luminometer (Berthold Technologies, Germany). The amount of protein assayed was determined by using the BCA protein assay kit (Pierce, Rockford IL). Relative luminescence units (RLU) were then normalized to total μg protein assayed. To convert RLU to ng luciferase a standard curve was generated with QuantiLum Recombinant Luciferase (Promega).
The FLuc mRNA (L-6107 or L-7202) from Trilink Biotechnologies will express a luciferase protein, originally isolated from the firefly, photinus pyralis. FLuc is commonly used in mammalian cell culture to measure both gene expression and cell viability. It emits bioluminescence in the presence of the substrate, luciferin. This capped and poly-adenylated mRNA was fully substituted with respect to uridine and/or cytidine nucleosides.
(§1) Representative compounds of the disclosure shown in Table 2 were formulated using the following molar ratio: 50% cationic lipid/10% distearoylphosphatidylcholine (DSPC)/38.5% Cholesterol/1.5% PEG lipid 2-[2-(ω-methoxy(polyethyleneglycol2000)ethoxy]-N,N-ditetradecylacetamide) or 47.5% cationic lipid/10% DSPC/40.7% Cholesterol/1.8% PEG lipid. Relative activity was determined by measuring luciferase expression in the liver 4 hours following administration via tail vein injection as described in Example 1 or by measuring the amount of human IgG in mouse serum as described in example 2. […]

human IgG in mouse serum = assay: Immunoglobulin G (IgG) mRNA in vivo evaluation using lipid nanoparticle compositions; design: species or system mice; settings: tail vein injection, 24 hours after administration, LNP formulation; for Serum IgG @ 0.3 mg/kg: 0.3 mg mRNA/kg; for Serum IgG @ 1.0 mg/kg: 1.0 mg mRNA/kg
Procedure: A lipid of structure (I), DSPC, cholesterol and PEG-lipid are solubilized in ethanol at a molar ratio of 50:10:38.5:1.5 or 47.5:10:40.7:1.8. Lipid nanoparticles (LNP) are prepared at a total lipid to mRNA weight ratio of approximately 10:1 to 40:1. Briefly, the mRNA is diluted to 0.2 mg/mL in 10 to 50 mM citrate buffer, pH 4 or 10 to 25 mM acetate buffer, pH 4. Syringe pumps are used to mix the ethanolic lipid solution with the mRNA aqueous solution at a ratio of about 1:5 to 1:3 (vol/vol) with total flow rates above 15 mL/min. The ethanol is then removed and the external buffer replaced with PBS by dialysis. Finally, the lipid nanoparticles are filtered through a 0.2 µm pore sterile filter.
Studies are performed in 6-8 week old CD-1/ICR mice (Envigo) according to guidelines established by an institutional animal care committee (ACC) and the Canadian Council on Animal Care (CCAC). Varying doses of mRNA-lipid nanoparticle are systemically administered by tail vein injection and animals euthanized at a specific time point (e.g., 24 hours) post-administration. The whole blood is collected, and the serum subsequentially separated by centrifuging the tubes of the whole blood at 2000× g for 10 minutes at 4° C. and stored at −80° C. until use for analysis.
For immunoglobulin G (IgG) ELISA (Life Diagnostics Human IgG ELISA kit), the serum samples are diluted at 100 to 15000 folds with 1× diluent solution. 100 μL of diluted serum is dispensed into anti-human IgG coated 96-well plate in duplicate alongside human IgG standards and incubated in a plate shaker at 150 rpm at 25° C. for 45 minutes. The wells are washed 5 times with 1× wash solution using a plate washer (400 μL/well). […] The absorbance is read at 450 nm (A450) with a microplate reader. The amount of human IgG in mouse serum is determined by plotting A450 values for the assay standard against human IgG concentration.
as §1, with “2. The activity was compared at a dose of 1.0 or 0.5 or 0.3 mg mRNA/kg and expressed as ng luciferase/g liver measured 4 hours after administration, as described in Example 1 or as μg IgG/mL serum measured 24 hours after administration, as described in Example 2.” for “2.”

Row | pKa [1] | SMILES | Liver Luc @ 0.5 mg/kg (ng luc/g) [2] | Serum IgG @ 0.3 mg/kg (human IgG in mouse serum) | Serum IgG @ 1.0 mg/kg (human IgG in mouse serum) | Liver Luc, determined at 0.3 mg/kg (ng luc/g) ([2]; 0.3 mg mRNA/kg) | Liver Luc, determined at 1.0 mg/kg (ng luc/g) ([2]; 1.0 mg mRNA/kg)
1 | 6.03 | CCCCCCCCCC(OC(=O)CCCCCN(CCCCO)CCCCCC(=O)OC(CCCCCCCCC)C(F)(F)C(F)(F)F)C(F)(F)C(F)(F)F (stereo not drawn) [Compound I-3, BIS(1,1,1,2,2-PENTAFLUORODODECAN-3-YL) 6,6′-((4-HYDROXYBUTYL)AZANEDIYL)DIHEXANOATE] | 3633 ± 1416 ng luc/g |  |  |  | 
2 | 5.88 | CCCCCCCCCC(OC(=O)CCCCCN(CCCCCO)CCCCCC(=O)OC(CCCCCCCCC)C(F)(F)C(F)(F)F)C(F)(F)C(F)(F)F (stereo not drawn) [Compound I-4, BIS(1,1,1,2,2-PENTAFLUORODODECAN-3-YL) 6,6′-((5-HYDROXYPENTYL)AZANEDIYL)DIHEXANOATE] |  |  |  | 1336 ± 329 ng luc/g | 14888 + 2009** ng luc/g
3 | 6.62 | CCCCCCCCCC(CC)OC(=O)CCCCCN(CCCCO)CCCCCC(=O)OC(CC)CCCCCCCCC (stereo not drawn) [I-3 analogue, reference compound] | 462 ± 425 ng luc/g |  |  |  | 

Further lines, the compound ahead of its results:

Row | SMILES | pKa [1] | Liver Luc @ 0.5 mg/kg (ng luc/g) [2] | Serum IgG @ 0.3 mg/kg (human IgG in mouse serum) | Serum IgG @ 1.0 mg/kg (human IgG in mouse serum) | Liver Luc, determined at 0.3 mg/kg (ng luc/g) ([2]; 0.3 mg mRNA/kg) | Liver Luc, determined at 1.0 mg/kg (ng luc/g) ([2]; 1.0 mg mRNA/kg)
4 | CCCCCCCCCC(OC(=O)CCCCCCCN(CCO)CCCCCCCC(=O)OC(CCCCCCCCC)C(F)(F)C(F)(F)F)C(F)(F)C(F)(F)F (stereo not drawn) [Compound I-1, BIS(1,1,1,2,2-PENTAFLUORODODECAN-3-YL) 8,8′-((2-HYDROXYETHYL)AZANEDIYL)DIOCTANOATE] | 5.88 | 1233 ± 305 ng luc/g |  |  |  | 
5 | CCCCCCCCCCN(CCCCCCCCCC)C(=O)C(F)CCCCCCN(CCCCCO)CCCCCCC(F)C(=O)N(CCCCCCCCCC)CCCCCCCCCC (stereo not drawn) [Compound I-9, 8,8′-((5-HYDROXYPENTYL)AZANEDIYL)BIS(N,N-DIDECYL-2-FLUOROOCTANAMIDE)] |  |  | 24.36 ± 4.39 µg/mL | 239.26 ± 39.80 µg/mL |  | 
6 | CCCCCCCCCC(OC(=O)CCCCCN(CCCO)CCCCCC(=O)OC(CCCCCCCCC)C(F)(F)C(F)(F)F)C(F)(F)C(F)(F)F (stereo not drawn) [Compound I-2, BIS(1,1,1,2,2-PENTAFLUORODODECAN-3-YL) 6,6′-((3-HYDROXYPROPYL)AZANEDIYL)DIHEXANOATE] | 5.92 | 511 ± 79 ng luc/g |  |  |  | 
7 | CCCCCCCCCCN(CCCCCCCCCC)C(=O)C(F)CCCCCCN(C)CCCCCCC(F)C(=O)N(CCCCCCCCCC)CCCCCCCCCC (stereo not drawn) [Compound I-10, 8,8′-(METHYLAZANEDIYL)BIS(N,N-DIDECYL-2-FLUOROOCTANAMIDE)] |  |  | 12.94 ± 2.03 µg/mL | 142.26 ± 26.31 µg/mL |  | 
